Key:
RIF-resistant Mtb strain = format: cell-based; conditions: 16 hr drug treatment, MOI=1, 4 hr post-infection, RT-PCR
EMB resistant Mtb strain = format: cell-based; conditions: 16 hr drug treatment, MOI=1, 4 hr post-infection, RT-PCR

## CC[C@@H](CO)NCCN[C@@H](CC)CO [EMB, Ethambutol]
RIF-resistant Mtb strain
  Reduction in SML generation compared to the untreated control: approximately 10 fold
EMB resistant Mtb strain
  SML generation after drug treatment: not decreased

From patent publication US8501400B2, “Methods and compositions for determining the pathogenic status of infectious agents” (priority 2007, dated 2013)
